Measured values: US9107408B2, “Plant disease controlling composition and method for controlling plant disease” (SUMITOMO CHEMICAL COMPANY, LIMITED, priority 2010, dated 2015)
Read-outs that look alike come from different tables or passages of the source.

Tested on: gray mold fungus (Botrytis cinerea)
Assay: Cucumber leaf disk preventive test against gray mold fungus
Type: in vivo
Conditions: for pest or weed control at 0.5 ppm / pest or weed control at 5 ppm: Botrytis cinerea, foliar, 96 h, read-out: preventive value (%)
Protocol: True leaf of cucumber is punched out with cork borer to 13 mm in diameter to prepare a leaf disk. In 24 well microwell plate that is dispensed with 1 ml 0.8% water agar, the leaf disk is placed such that the upper side of the leaf is in an upward direction. Thereto is added 20 micro liter a testing solution prepared by mixing a dimethyl sulfoxide solution of the present compound (racemate) and a dimethyl sulfoxide solution of tebuconazole to a predetermined concentration to treat the leaf disk.
After confirming that the testing medical solution is dried, conidium of gray mold fungus (Botrytis cinerea) is suspended into potato dextrose broth (DIFCO) in a density of about 10^5 conidium/mL and is then subjected to a spray inoculation. After leaving to stand the leaf disk in a growth chamber set up at 15° C. for four days, an onset area on the leaf is measured and then calculated an onset area rate (hereinafter, referred to as an onset area rate of treated group).
The same operation is carried out with 20 micro liter water instead of 20 micro liter a testing medicine solution to calculate an onset area rate (hereinafter, referred to an onset area rate of non-treated group).
A preventive value is calculated from the above onset area rate of treated group and the onset area rate of non-treated group by the following equation: Preventive value (%)=100×(A−B)/A
A: an onset area rate of treated group
B: an onset area rate of non-treated group
The same operations as described in Test Example 1 are carried out with triadimenol, bitertanol, oxpoconazole fumarate, cyazofamid, pefurazoate, triflumizole, or hymexazol instead of tebuconazole, so as to calculate respective preventive values.
Also for comparison, the same operations as described in Test Example 1 are carried out with the exception that the testing medicine solution is substituted with a predetermined concentration of each dimethyl sulfoxide solution of the present compound (racemate), triadimenol, bitertanol, oxpoconazole fumarate, cyazofamid, pefurazoate, triflumizole, or hymexazol, so as to calculate respective preventive values.
For comparison, the same operations as described in Test Example 1 are carried out with the exception that the testing medicine solution is substituted with a predetermined concentration of a dimethyl sulfoxide solution of tebuconazole, so as to calculate a preventive value.

[1] = azole compound alone 0.5 ppm, cucumber leaf disk, 15° C., four days
[2] = azole compound alone 5.0 ppm, cucumber leaf disk, 15° C., four days

Row | Structure (SMILES) | pest or weed control at 0.5 ppm [1] [%] | pest or weed control at 5 ppm [2] [%] | further results
1 | CCCOC/C(=N\c1ccc(Cl)cc1C(F)(F)F)n1ccnc1 [triflumizole] | 44 | 57 | –
2 | Cc1ccc(-c2c(Cl)nc(C#N)n2S(=O)(=O)N(C)C)cc1 [cyazofamid] | 10 | 15 | –
3 | CC(C)(C)C(O)(CCc1ccc(Cl)cc1)Cn1cncn1 (stereo not shown) [tebuconazole] | 40 | 54 | –
4 | CC(C)(C)C(O)C(Oc1ccc(Cl)cc1)n1cncn1 (stereo not shown) [triadimenol] | 45 | 58 | –
5 | C=CCCCOC(=O)C(CC)N(Cc1ccco1)C(=O)n1ccnc1 (stereo not shown) [pefurazoate] | – | – | pest or weed control at 0.5 ppm: 44%; pest or weed control at 5 ppm: 53%
6 | CC1(C)COC(C)(CCCc2ccc(Cl)cc2)N1C(=O)n1ccnc1.CC1(C)COC(C)(CCCc2ccc(Cl)cc2)N1C(=O)n1ccnc1.O=C(O)/C=C/C(=O)O (stereo not shown) [oxpoconazole fumarate] | – | – | preventive value (%) [1]: 49%; preventive value (%) [2]: 59%
7 | CC(C)(C)C(O)C(Oc1ccc(-c2ccccc2)cc1)n1cncn1 (stereo not shown) [bitertanol] | 45 | 56 | –
8 | Cc1cc(O)no1 [hymexazol] | 5 | 10 | –
